Test results from patent publication US9044463B2, “FSH receptor antagonists” (Merck Sharp & Dohme B.V., priority 2011, dated 2015).

Biological target: T1, human FSH receptor (Homo sapiens, UniProt P23945)
T1 construct: expressed in transfected cells; host or cells: CHO (Chinese Hamster Ovary) cells, stably transfected; cotransfected with a CRE-luciferase reporter
T1 sequence (P23945 18-695): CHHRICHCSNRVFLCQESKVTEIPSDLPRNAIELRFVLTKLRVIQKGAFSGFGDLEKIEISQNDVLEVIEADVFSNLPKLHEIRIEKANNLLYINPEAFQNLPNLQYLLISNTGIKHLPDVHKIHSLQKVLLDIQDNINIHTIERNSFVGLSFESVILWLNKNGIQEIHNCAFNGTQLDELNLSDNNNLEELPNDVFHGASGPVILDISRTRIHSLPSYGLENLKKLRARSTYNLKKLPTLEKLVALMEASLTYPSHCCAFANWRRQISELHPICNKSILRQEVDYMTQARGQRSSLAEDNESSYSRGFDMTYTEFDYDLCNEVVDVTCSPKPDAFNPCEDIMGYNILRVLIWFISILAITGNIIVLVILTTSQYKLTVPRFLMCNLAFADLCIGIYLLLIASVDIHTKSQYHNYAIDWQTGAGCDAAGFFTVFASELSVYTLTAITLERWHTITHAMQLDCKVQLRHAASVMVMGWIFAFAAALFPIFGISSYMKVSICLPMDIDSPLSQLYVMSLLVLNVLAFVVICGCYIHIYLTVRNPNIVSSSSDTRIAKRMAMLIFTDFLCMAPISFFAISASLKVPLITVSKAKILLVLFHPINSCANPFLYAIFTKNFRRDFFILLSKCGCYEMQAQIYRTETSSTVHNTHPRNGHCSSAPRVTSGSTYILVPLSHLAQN
Assay: Antagonistic activity at the human FSH receptor expressed in CHO cells (CRE-luciferase reporter)
Format: cell-based
Conditions: CHO cells stably transfected with human FSH receptor and CRE-luciferase; with 49 μM recFSH; 4 hours incubation; read-out: IC50 (inhibition of recFSH-induced luciferase stimulation)
Procedure: Antagonistic Activity of Compounds at the Human FSH Receptor Expressed in CHO Cells
Antagonistic activity of the compounds at the human FSH receptor was determined in Chinese Hamster Ovary (CHO) cells stably transfected with the human FSH receptor and cotransfected to with a cAMP responsive element (CRE)/promoter directing the expression of a firefly luciferase reporter gene. Binding of the compounds to the Gs protein-coupled FSH receptor will result in an increase of cAMP, which in turn will induce an increased transactivation of the luciferase reporter. The cells (7,500 cells/well of a 384 well plate) were incubated in Dulbecco′ minimal essential F12 modified medium (Invitrogen), supplemented with 1 μg/ml bovine insulin, 5 μg/ml human apo-transferrin, 100 U/ml penicillin G and 100 μg/ml streptomycin with the test compounds (concentration between 0.316 nM and 10.0 μM) in duplicate together with […] recFSH (which, at this concentration in the absence of test compound, induces 80% of the maximal luciferase stimulation) in a humidified atmosphere (95%) at 5-7% CO2 and 37° C. The final concentration of DMSO was 1%. After 4 hours of incubation, plates were allowed to adjust to room temperature for 1 hour. Then, SteadyLite (PerkinElmer) solution was added to the wells and cells were allowed to lyse for at least 1 hour at room temperature. Subsequently, luciferase activity was measured in a luminescence counter. The signal is expressed as counts per second (cps). The IC50 (concentration of test compound causing half-maximal (50%) inhibition of the maximally attainable inhibition of the luciferase stimulation by the compound) and efficacy of the compounds were determined using the software program MathIQ (version 2.3, ID Business Solutions Limited).

Q: With `COc1cc2c(c(OC)c1OC)CCc1cc(-c3sccc3C)c(C(=O)N[C@@H](CO)Cc3c[nH]c4ccccc34)cc1-2` [Example 5, N—((R)-1-hydroxy-3-(1H-indol-3-yl)propan-2-yl)-6,7,8-trimethoxy-2-(3-methylthiophen-2-yl)-9,10-dihydrophenanthrene-3-carboxamide] as the molecule, how does the IC50 read?
A: Its IC50 is < 100 nM.

Q: How did the IC50 turn out when `CC(C)Oc1cc2c(cc1C(=O)N[C@@H](CO)Cc1c[nH]c3ccccc13)-c1cc3c(cc1CO2)OCO3` [Example 35, (R)—N-(1-hydroxy-3-(1H-indol-3-yl)propan-2-yl)-3-isopropoxy-8,9-(1′,3′-dioxolo)-6H-benzo[c]chromene-2-carboxamide] was run?
A: Its IC50 is 100 to 1000 nM.

Q: How did the IC50 turn out when `COc1cc2c(cc1OC)-c1cc(C(=O)N[C@@H](CO)Cc3c[nH]c4ccccc34)c(-c3ccc(Cl)s3)cc1CC2` [Example 23, (R)-2-(5-chlorothiophen-2-yl)-N-(1-hydroxy-3-(1H-indol-3-yl)propan-2-yl)-6,7-dimethoxy-9,10-dihydrophenanthrene-3-carboxamide] was run?
A: The IC50 was < 100 nM.

Q: For `COc1cc2c(cc1OC)-c1cc(C(=O)N[C@@H](CO)Cc3c[nH]c4ccccc34)c(-c3sccc3C)cc1OC2` [Example 39, N—((R)-1-hydroxy-3-(1H-indol-3-yl)propan-2-yl)-8,9-dimethoxy-3-(3-methylthiophen-2-yl)-6H-benzo[c]chromene-2-carboxamide], which IC50 is on record?
A: Its IC50 is < 100 nM.

Q: How did the IC50 turn out when `COc1cc2c(cc1OC)-c1cc(C(=O)N[C@@H](CO)Cc3c[nH]c4ccccc34)c(OC(F)C(N)=O)cc1CC2` (stereo partly drawn) [Example 14, 2-(2-amino-1-fluoro-2-oxoethoxy)-N—((R)-1-hydroxy-3-(1H-indol-3-yl)propan-2-yl)-6,7-dimethoxy-9,10-dihydrophenanthrene-3-carboxamide] was run?
A: Its IC50 is 100 to 1000 nM.

Q: With `C=CCOc1cc2c(cc1OC)CCc1cc(-c3ccccc3F)c(C(=O)N[C@@H](CO)Cc3c[nH]c4ccccc34)cc1-2` [Example 29, 6-(allyloxy)-2-(2-fluorophenyl)-N—((R)-1-hydroxy-3-(1H-indol-3-yl)propan-2-yl)-7-methoxy-9,10-dihydrophenanthrene-3-carboxamide] as the molecule, how does the IC50 read?
A: The IC50 was < 100 nM.

Q: For `O=C(N[C@@H](CO)Cc1c[nH]c2ccccc12)c1cc2c(cc1-c1ccccc1F)OCc1cc3c(cc1-2)OCO3` [Example 55, 3-(2-fluorophenyl)-N—((R)-1-hydroxy-3-(1H-indol-3-yl)propan-2-yl)-8,9-(1′,3′-dioxolo)-6H-benzo[c]chromene-2-carboxamide], which IC50 is on record?
A: Its IC50 is < 100 nM.

Q: `COc1cc2c(cc1OC(C)C)COc1cc(-c3ccccc3F)c(C(=O)N[C@@H](CO)Cc3c[nH]c4ccccc34)cc1-2` [Example 43, 3-(2-fluorophenyl)-N—((R)-1-hydroxy-3-(1H-indol-3-yl)propan-2-yl)-8-isopropoxy-9-methoxy-6H-benzo[c]chromene-2-carboxamide] was tested. Which IC50 did it give?
A: Its IC50 is < 100 nM.

Q: With `COc1cccc(-c2cc3c(cc2C(=O)N[C@@H](CO)Cc2c[nH]c4ccccc24)-c2cc(OC)c(OC)cc2CC3)c1` [Example 25, (R)—N-(1-hydroxy-3-(1H-indol-3-v)propan-2-v)-6,7-dimethoxy-2-(3-methoxyphenyl)-9,10-dihydrophenanthrene-3-carboxamide] as the molecule, how does the IC50 read?
A: The IC50 was < 100 nM.

Q: How did the IC50 turn out when `COc1cc2c(cc1-c1cccnc1)COc1cc(-c3ccccc3F)c(C(=O)N[C@@H](CO)Cc3c[nH]c4ccccc34)cc1-2` [Example 50, 3-(2-fluorophenyl)-N—((R)-1-hydroxy-3-(1H-indol-3-yl)propan-2-yl)-9-methoxy-8-(pyridin-3-v)-6H-benzo[c]chromene-2-carboxamide] was run?
A: Its IC50 is < 100 nM.

Q: With `CC(C)Oc1cc2oc(=O)c3cc4c(cc3c2cc1C(=O)N[C@@H](CO)Cc1c[nH]c2ccccc12)OCO4` [Example 57, N—((R)-1-hydroxy-3-(1H-indol-3-yl)propan-2-v)-8,9-(1′,3′-dioxolo)-3-(3-isopropoxy)-6-oxo-6H-benzo[c]chromene-2-carboxamide] as the molecule, how does the IC50 read?
A: Its IC50 is 100 to 1000 nM.

Q: For `COc1cc2c(cc1OC)-c1cc(C(=O)N[C@@H](CO)Cc3c[nH]c4ccccc34)c(-c3c(F)cc(O)cc3F)cc1CC2` [Example 19, (R)-2-(2,6-difluoro-4-hydroxyphenyl)-N-(1-hydroxy-3-(1H-indol-3-yl)propan-2-yl)-6,7-dimethoxy-9,10-dihydrophenanthrene-3-carboxamide], which IC50 is on record?
A: The IC50 was < 100 nM.

Q: For `C=CCOc1cc2c(cc1C(=O)N[C@@H](CO)Cc1c[nH]c3ccccc13)-c1cc(OC)c(OC)cc1CC2` [Example 13, (R)-2-(allyloxy)-N-(1-hydroxy-3-(1H-indol-3-yl)propan-2-yl)-6,7-dimethoxy-9,10-dihydrophenanthrene-3-carboxamide], which IC50 is on record?
A: Its IC50 is 100 to 1000 nM.

Q: Which IC50 does the source give for `COc1cc2c(c(OC)c1OC)CCc1cc(OC(C)C)c(C(=O)N[C@@H](CO)Cc3c[nH]c4ccccc34)cc1-2` [Example 7, (R)—N-(1-hydroxy-3-(1H-indol-3-yl)propan-2-yl)-2-isopropoxy-6,7,8-trimethoxy-9,10-dihydrophenanthrene-3-carboxamide] here?
A: The IC50 was < 100 nM.

Q: With `COc1cc2c(cc1OC)-c1cc(C(=O)N[C@@H](CO)Cc3c[nH]c4ccccc34)c(-c3ccco3)cc1CC2` [Example 24, (R)-2-(furan-2-yl)-N-(1-hydroxy-3-(1H-indol-3-yl)propan-2-yl)-6,7-dimethoxy-9,10-dihydrophenanthrene-3-carboxamide] as the molecule, how does the IC50 read?
A: Its IC50 is < 100 nM.

Q: How did the IC50 turn out when `COc1cc2c(cc1OC)-c1cc(C(=O)N[C@@H](CO)Cc3c[nH]c4ccccc34)c(-c3ccccc3F)cc1CC2` [Example 18, 2-(2-fluorophenyl)-N—((R)-1-hydroxy-3-(1H-indol-3-yl)propan-2-yl)-6,7-dimethoxy-9,10-dihydrophenanthrene-3-carboxamide] was run?
A: Its IC50 is < 100 nM.

Q: How did the IC50 turn out when `COc1cc2c(cc1OC)-c1cc(C(=O)N[C@@H](CO)Cc3c[nH]c4ccccc34)c(OC3CCCC3)cc1CC2` [Example 9, (R)-2-(cyclopentyloxy)-N-(1-hydroxy-3-(1H-indol-3-yl)propan-2-yl)-6,7-dimethoxy-9,10-dihydrophenanthrene-3-carboxamide] was run?
A: Its IC50 is < 100 nM.

Q: With `COCCOc1cc2c(cc1OC)-c1cc(C(=O)N[C@@H](CO)Cc3c[nH]c4ccccc34)c(-c3ccccc3F)cc1OC2` [Example 45, 3-(2-fluorophenyl)-N—((R)-1-hydroxy-3-(1H-indol-3-yl)propan-2-yl)-9-methoxy-8-(2-methoxyethoxy)-6H-benzo[c]chromene-2-carboxamide] as the molecule, how does the IC50 read?
A: The IC50 was < 100 nM.

Q: How did the IC50 turn out when `COc1cc2c(cc1OC)-c1cc(C(=O)N[C@@H](CO)Cc3c[nH]c4ccccc34)c(-c3ccccc3)cc1OC2` [Example 40, (R)—N-(1-hydroxy-3-(1H-indol-3-yl)propan-2-yl)-8,9-dimethoxy-3-phenyl-6H-benzo[c]chromene-2-carboxamide] was run?
A: Its IC50 is < 100 nM.

Q: How did the IC50 turn out when `COc1cc2c(cc1OC)-c1cc(C(=O)N[C@@H](CO)Cc3c[nH]c4ccccc34)c(OC(C)C#N)cc1CC2` (stereo partly drawn) [Example 12, 2-(1-cyanoethoxy)-N—((R)-1-hydroxy-3-(1H-indol-3-yl)propan-2-yl)-6,7-dimethoxy-9,10-dihydrophenanthrene-3-carboxamide] was run?
A: The IC50 was 100 to 1000 nM.

Q: For `COc1cc2c(c(OC)c1OC)CCc1cc(-c3ccccc3)c(C(=O)N[C@@H](CO)Cc3c[nH]c4ccccc34)cc1-2` [Example 1, (R)—N-(1-hydroxy-3-(1H-indol-3-yl)propan-2-yl)-6,7,8-trimethoxy-2-phenyl-9,10-dihydrophenanthrene-3-carboxamide], which IC50 is on record?
A: The IC50 was < 100 nM.

Q: Which IC50 does the source give for `COc1cc2c(cc1OC)-c1cc(C(=O)N[C@@H](CO)Cc3c[nH]c4ccccc34)c(-c3ccncc3F)cc1CC2` [Example 21, 2-(3-fluoropyridin-4-yl)-N—((R)-1-hydroxy-3-(1H-indol-3-yl)propan-2-yl)-6,7-dimethoxy-9,10-dihydrophenanthrene-3-carboxamide] here?
A: Its IC50 is < 100 nM.

Q: Which IC50 does the source give for `COc1cc2c(cc1-c1ccncc1)COc1cc(-c3ccccc3F)c(C(=O)N[C@@H](CO)Cc3c[nH]c4ccccc34)cc1-2` [Example 52, 3-(2-fluorophenyl)-N—((R)-1-hydroxy-3-(1H-indol-3-yl)propan-2-yl)-9-methoxy-8-(pyridin-4)-6H-benzo[c]chromene-2-carboxamide] here?
A: The IC50 was < 100 nM.
